This experiment addresses T1, human KDR (Homo sapiens, UniProt P35968).
T1 construct: expressed in transfected cells; host or cells: NIH 3T3 cells (mouse fibroblasts) stably expressing human KDR
Put plainly: Inhibitory activity against KDR phosphorylation by ELISA (VEGF-stimulated NIH 3T3 cells expressing human KDR). The following applies: VEGF 100 ng/ml, compound 1 hr, read-out: IC50 (inhibition of KDR phosphorylation). It counts as cell-based. The procedure: The harvested cells were inoculated into wells of a collagen-type one-coat 96-well flat-bottom plate, each containing the same medium, in an amount of 1.5×10^4 per well, followed by cultivation at 37° C. overnight. The medium was then replaced by a DMEM medium containing 0.1% fetal calf serum. A solution of a test compound in dimethyl sulfoxide was added to each well, and the cultivation was continued at 37° C. for additional one hr. A human recombinant vascular endothelial growth factor (hereinafter abbreviated to “VEGF”) was added to a final concentration of 100 ng/ml, and the stimulation of cells was carried out at 37° C. for 2 min. The medium was removed, the cells were washed with phosphate buffered saline (pH 7.4), and 50 μl of a solubilization buffer (20 mM HEPES (pH 7.4), 150 mM NaCl, 0.2% Triton X-100, 10% glycerol, 5 mM sodium orthovanadylate, 5 mM disodium ethylenediaminetetraacetate, and 2 mM Na4P2O7) was then added thereto. The mixture was shaken at 4° C. for 2 hr to prepare a cell extract.
Separately, phosphate buffered saline (50 μl, pH 7.4) containing 5 μg/ml of an anti-phospho-tyrosine antibody (PY20; purchased from Transduction Laboratories) was added to a microplate for ELISA (Maxisorp; purchased from NUNC), followed by standing at 4° C. overnight to form a solid phase on the wells. After washing of the plate, 300 μl of a blocking solution was added, followed by standing at room temperature for 2 hr to perform blocking. After washing, the whole quantity of the cell extract was transferred to the wells, and the plate was then allowed to stand at 4° C. overnight. After washing, an anti-KDR antibody (purchased from Santa Cruz) was allowed to react at room temperature for one hr, and, after washing, a peroxidase-labeled anti-rabbit Ig antibody (purchased from Amersham) was allowed to react at room temperature for one hr. After washing, a chromophoric substrate for peroxidase (purchased from Sumitomo Bakelite Co., Ltd.) was added thereto to initiate a reaction. After a suitable level of color development, a reaction termination solution was added to stop the reaction, and the absorbance at 450 nm was measured with a microplate reader. The KDR phosphorylation activity for each well was determined by presuming the absorbance with the addition of VEGF and without the addition of the medicament to be 100% KDR phosphorylation activity and the absorbance without the addition of the medicament and VEGF to be 0% KDR phosphorylation activity.
For orientation: In an ELISA, binding on a coated surface is turned into a signal by an enzyme label.

The structures appear in SMILES notation.

T1 sequence (P35968 20-1356): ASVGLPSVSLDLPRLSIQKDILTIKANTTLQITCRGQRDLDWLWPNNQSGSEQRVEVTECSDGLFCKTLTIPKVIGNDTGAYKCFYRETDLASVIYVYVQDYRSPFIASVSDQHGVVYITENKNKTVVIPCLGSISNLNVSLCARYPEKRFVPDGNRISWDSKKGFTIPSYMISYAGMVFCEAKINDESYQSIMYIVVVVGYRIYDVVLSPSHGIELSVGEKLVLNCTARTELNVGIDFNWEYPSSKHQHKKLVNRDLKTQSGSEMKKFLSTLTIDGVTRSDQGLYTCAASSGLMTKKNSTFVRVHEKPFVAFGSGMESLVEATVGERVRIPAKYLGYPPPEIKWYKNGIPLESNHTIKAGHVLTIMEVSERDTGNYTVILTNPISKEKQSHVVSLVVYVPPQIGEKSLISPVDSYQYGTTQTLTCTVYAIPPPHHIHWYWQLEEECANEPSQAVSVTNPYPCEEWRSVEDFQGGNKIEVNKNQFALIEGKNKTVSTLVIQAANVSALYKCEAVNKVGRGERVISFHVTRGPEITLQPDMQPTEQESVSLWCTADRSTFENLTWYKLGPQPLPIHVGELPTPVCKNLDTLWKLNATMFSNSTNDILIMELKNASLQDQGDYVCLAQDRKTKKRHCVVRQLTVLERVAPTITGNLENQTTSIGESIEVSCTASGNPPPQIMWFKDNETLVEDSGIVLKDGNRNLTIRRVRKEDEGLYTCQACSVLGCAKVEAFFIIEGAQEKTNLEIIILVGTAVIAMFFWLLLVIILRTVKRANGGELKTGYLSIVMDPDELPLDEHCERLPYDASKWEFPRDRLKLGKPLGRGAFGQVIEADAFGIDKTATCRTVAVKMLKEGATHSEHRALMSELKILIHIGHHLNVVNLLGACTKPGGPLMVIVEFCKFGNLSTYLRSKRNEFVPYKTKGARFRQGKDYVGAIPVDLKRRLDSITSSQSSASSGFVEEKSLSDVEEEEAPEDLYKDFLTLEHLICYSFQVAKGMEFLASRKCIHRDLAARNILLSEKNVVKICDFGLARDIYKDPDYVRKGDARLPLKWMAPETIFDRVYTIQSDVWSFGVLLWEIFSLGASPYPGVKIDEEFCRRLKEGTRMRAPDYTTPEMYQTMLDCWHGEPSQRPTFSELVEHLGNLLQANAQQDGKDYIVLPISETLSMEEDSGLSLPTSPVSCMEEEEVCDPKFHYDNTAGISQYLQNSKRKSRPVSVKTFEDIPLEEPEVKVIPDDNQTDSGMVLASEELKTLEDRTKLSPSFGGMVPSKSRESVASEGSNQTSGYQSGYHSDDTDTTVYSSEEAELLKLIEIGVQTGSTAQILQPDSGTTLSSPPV

With `COc1cc2ncnc(Oc3ccc(NC(=O)Nc4ncc(C)s4)cc3)c2cc1OC` [Ex. 43, N-{4-[(6,7-Dimethoxy-4-quinazolinyl)oxy]-phenyl}-N′-(5-methyl-1,3-thiazol-2-yl)urea], the IC50 (as a rule, the point on the concentration scale where inhibition reaches its midpoint) was below 1 nM. As for `COc1cc2nccc(Oc3ccc(NC(=O)Nc4ccon4)cc3Cl)c2cc1OC` [Ex. 1, N-{3-Chloro-4-[(6,7-dimethoxy-4-quinolyl)oxy]phenyl}-N′-(3-isoxazolyl)urea], the IC50 is 2.3 nM. For `COc1cc2ncnc(Oc3ccc(NC(=O)Nc4nc(C)cs4)cc3Cl)c2cc1OC` [Ex. 48, N-{3-Chloro-4-[(6,7-dimethoxy-4-quinazolinyl)oxy]phenyl}-N′-(4-methyl-1,3-thiazol-2-yl)urea], the IC50 came out at 4.4 nM. For `COc1cc2ncnc(Oc3ccc(NC(=O)Nc4cc(C)no4)cc3)c2cc1OC` [Ex. 11, N-{4-[(6,7-Dimethoxy-4-quinazolinyl)oxy]-phenyl}-N′-(3-methyl-5-isoxazolyl)urea], the half-maximal inhibitory concentration (IC50) was found to be 9.3 nM.

As to `COc1cc2nccc(Oc3ccc(NC(=O)Nc4nnc(C(F)(F)F)s4)cc3Cl)c2cc1OC` [Ex. 73, N-{3-Chloro-4-[(6,7-dimethoxy-4-quinolyl)oxy]phenyl}-N′-[5-(trifluoromethyl)-1,3,4-thiadiazol-2-yl]urea], the IC50 was 21 nM.

As for `COc1cc2nccc(Oc3ccc(NC(=O)Nc4ccn[nH]4)cc3Cl)c2cc1OC` [Ex. 19, N-{3-Chloro-4-[(6,7-dimethoxy-4-quinolyl)oxy]phenyl}-N′-(1H-5-pyrazolyl)urea], the IC50 was determined as 17.5 nM.

Consider `COc1cc2ncnc(Oc3ccc(NC(=O)Nc4nc(C)cs4)cc3)c2cc1OC` [Ex. 44, N-{4-[(6,7-Dimethoxy-4-quinazolinyl)oxy]-phenyl}-N′-(4-methyl-1,3-thiazol-2-yl)urea], for which the IC50 was 1.1 nM. `COc1cc2nccc(Oc3ccc(NC(=O)Nc4nc(C)c(C(C)=O)s4)c(F)c3)c2cc1OC` [Ex. 36, N-(5-Acetyl-4-methyl-1,3-thiazol-2-yl)-N′-{4-[(6,7-dimethoxy-4-quinolyl)oxy]-2-fluorophenyl}urea]: the IC50 stood at 1.2 nM. On to `CCc1nnc(NC(=O)Nc2ccc(Oc3ccnc4cc(OC)c(OC)cc34)cc2F)s1` [Ex. 63, N-{4-[(6,7-Dimethoxy-4-quinolyl)oxy]-2-fluorophenyl}-N′-(5-ethyl-1,3,4-thiadiazol-2-yl)urea], for which the IC50 is below 1 nM.

As for `COc1cc2ncnc(Oc3ccc(NC(=O)Nc4ncc(C)s4)cc3Cl)c2cc1OC` [Ex. 47, N-{3-Chloro-4-[(6,7-dimethoxy-4-quinazolinyl)oxy]phenyl}-N′-(5-methyl-1,3-thiazol-2-yl)urea], the IC50 is 2.8 nM. As for `COc1cc2nccc(Oc3ccc(NC(=O)Nc4ncc(Cl)s4)c(Cl)c3)c2cc1OC` [Ex. 34, N-{2-Chloro-4-[(6,7-dimethoxy-4-quinolyl)oxy]phenyl}-N′-(5-chloro-1,3-thiazol-2-yl)urea], the IC50 was determined as 2.8 nM.

Consider `COc1cc2nccc(Oc3ccc(NC(=O)Nc4cc(C)no4)cc3Cl)c2cc1OC` [Ex. 2, N-{3-Chloro-4-[(6,7-dimethoxy-4-quinolyl)oxy]phenyl}-N′-(3-methyl-5-isoxazolyl)urea], for which the IC50 was determined as 2 nM.

Regarding `CCc1nnc(NC(=O)Nc2ccc(Oc3ccnc4cc(OC)c(OC)cc34)c(Cl)c2)s1` [Ex. 66, N-{3-Chloro-4-[(6,7-dimethoxy-4-quinolyl)oxy]phenyl}-N′-(5-ethyl-1,3,4-thiadiazol-2-yl)urea], the IC50 is 3.7 nM.

In the case of `COc1cc2ncnc(Oc3ccc(NC(=O)Nc4cc(C)no4)c(Cl)c3)c2cc1OC` [Ex. 13, N-{2-Chloro-4-[(6,7-dimethoxy-4-quinazolinyl)oxy]phenyl}-N′-(3-methyl-5-isoxazolyl)urea], the 50% inhibitory concentration (IC50) was 2.2 nM. Consider `COc1cc2nccc(Oc3ccc(NC(=O)Nc4nc(C(C)(C)C)cs4)c(Cl)c3)c2cc1OC` [Ex. 33, N-[4-(Tert-butyl)-1,3-thiazol-2-yl]-N′-{2-chloro-4-[(6,7-dimethoxy-4-quinolyl)oxy]phenyl}urea], for which the IC50 amounted to 21.1 nM. Regarding `COc1cc2ncnc(Oc3ccc(NC(=O)Nc4cc(C)on4)cc3)c2cc1OC` [Ex. 10, N-{4-[(6,7-Dimethoxy-4-quinazolinyl)oxy]-phenyl}-N′-(5-methyl-3-isoxazolyl)urea], the IC50 was 3.6 nM. Take `CCSc1nnc(NC(=O)Nc2ccc(Oc3ccnc4cc(OC)c(OC)cc34)cc2F)s1` [Ex. 70, N-{4-[(6,7-Dimethoxy-4-quinolyl)oxy]-2-fluorophenyl}-N′-[5-(ethylsulfanyl)-1,3,4-thiadiazol-2-yl]urea]: the IC50 amounted to 2.2 nM. Consider `COc1cc2nccc(Oc3ccc(NC(=O)Nc4ncc(Br)s4)c(Cl)c3)c2cc1OC` [Ex. 32, N-(5-Bromo-1,3-thiazol-2-yl)-N′-{2-chloro-4-[(6,7-dimethoxy-4-quinolyl)oxy]phenyl}urea], for which the IC50 came to 3.7 nM. Under `COc1cc2ncnc(Oc3ccc(NC(=O)Nc4cc(C)ns4)cc3Cl)c2cc1OC` [Ex. 18, N-{3-Chloro-4-[(6,7-dimethoxy-4-quinazolinyl)oxy]phenyl}-N′-(3-methyl-5-isothiazolyl)-urea] stands 69.7 nM; under `COc1cc2ncnc(Oc3ccc(NC(=O)Nc4cc(C)on4)cc3Cl)c2cc1OC` [Ex. 14, N-{3-Chloro-4-[(6,7-dimethoxy-4-quinazolinyl)oxy]phenyl}-N′-(5-methyl-3-isoxazolyl)urea], 4.4 nM; under `COc1cc2ncnc(Oc3ccc(NC(=O)Nc4cc(C)ns4)cc3)c2cc1OC` [Ex. 16, N-{4-[(6,7-Dimethoxy-4-quinazolinyl)oxy]-phenyl}-N′-(3-methyl-5-isothiazolyl)urea], 54.9 nM.

Turning to `COc1cc2ncnc(Oc3ccc(NC(=O)Nc4cc(C)on4)c(Cl)c3)c2cc1OC` [Ex. 12, N-{2-Chloro-4-[(6,7-dimethoxy-4-quinazolinyl)oxy]phenyl}-N′-(5-methyl-3-isoxazolyl)urea], the IC50 was below 1 nM.

On to `COc1cc2nccc(Oc3ccc(NC(=O)Nc4nnc(C5CC5)s4)cc3Cl)c2cc1OC` [Ex. 68, N-{3-Chloro-4-[(6,7-dimethoxy-4-quinolyl)oxy]phenyl}-N′-(5-cyclopropyl-1,3,4-thiadiazol-2-yl)urea], for which the IC50 came to 18 nM.

Regarding `CCc1nnc(NC(=O)Nc2ccc(Oc3ccnc4cc(OC)c(OC)cc34)cc2C)s1` [Ex. 60, N-{4-[(6,7-Dimethoxy-4-quinolyl)oxy]-2-methylphenyl}-N′-(5-ethyl-1,3,4-thiadiazol-2-yl)urea], the IC50 was below 1 nM. The result for `CCc1nnc(NC(=O)Nc2ccc(Oc3ccnc4cc(OC)c(OC)cc34)cc2)s1` [Ex. 59, N-{4-[(6,7-Dimethoxy-4-quinolyl)oxy]phenyl}-N′-(5-ethyl-1,3,4-thiadiazol-2-yl)urea] reads 1.3 nM. As to `COc1cc2ncnc(Oc3ccc(NC(=O)Nc4cc(C)no4)cc3Cl)c2cc1OC` [Ex. 15, N-{3-Chloro-4-[(6,7-dimethoxy-4-quinazolinyl)oxy]phenyl}-N′-(3-methyl-5-isoxazolyl)urea], the IC50 was 13.4 nM. The result for `CCSc1nnc(NC(=O)Nc2ccc(Oc3ccnc4cc(OC)c(OC)cc34)c(C)c2C)s1` [Ex. 71, N-{4-[(6,7-Dimethoxy-4-quinolyl)oxy]-2,3-dimethylphenyl}-N′-[5-(ethylsulfanyl)-1,3,4-thiadiazol-2-yl]urea] reads 3.1 nM. The result for `COc1cc2nccc(Oc3ccc(NC(=O)Nc4nnc(C5CC5)s4)c(Cl)c3)c2cc1OC` [Ex. 67, N-{2-Chloro-4-[(6,7-dimethoxy-4-quinolyl)oxy]phenyl}-N′-(5-cyclopropyl-1,3,4-thiadiazol-2-yl)urea] reads 2.4 nM; that for `COc1cc2nccc(Oc3ccc(NC(=O)Nc4nc(C)c(C)s4)c(C(F)(F)F)c3)c2cc1OC` [Ex. 26, N-[4-[(6,7-Dimethoxy-4-quinolyl)oxy]-2-(trifluoromethyl)phenyl]-N′-(4,5-dimethyl-1,3-thiazol-2-yl)urea], 5 nM; that for `COc1cc2nccc(Oc3ccc(NC(=O)Nc4nc(C(C)(C)C)cs4)c(F)c3)c2cc1OC` [Ex. 30, N-[4-(Tert-butyl)-1,3-thiazol-2-yl]-N′-{4-[(6,7-dimethoxy-4-quinolyl)oxy]-2-fluorophenyl}urea], 28.6 nM. Turning to `COc1cc2nccc(Oc3ccc(NC(=O)Nc4nnc(C(F)(F)F)s4)c(Cl)c3)c2cc1OC` [Ex. 72, N-{2-Chloro-4-[(6,7-dimethoxy-4-quinolyl)oxy]phenyl}-N′-[5-(trifluoromethyl)-1,3,4-thiadiazol-2-yl]urea], the IC50 was found to be 2.9 nM. The result for `COc1cc2ncnc(Oc3ccc(NC(=O)Nc4nc(C)c(C)s4)cc3)c2cc1OC` [Ex. 45, N-{4-[(6,7-Dimethoxy-4-quinazolinyl)oxy]-phenyl}-N′-(4,5-dimethyl-1,3-thiazol-2-yl)urea] reads below 1 nM.

These data come from patent US7211587B2, “Quinoline derivatives and quinazoline derivatives having azolyl group” (Kirin Beer Kabushiki Kaisha, priority 2001, dated 2007).
